In the supplement of paper PMC10307832:

Legend:
Assay in all cases: relative viability (nuclei count vs DMSO), 5 days (fraction); higher = more cells survive
Elesclomol + Vorinostat = compound: CN(NC(=O)CC(=O)NN(C)C(=S)c1ccccc1)C(=S)c1ccccc1 [Elesclomol] + O=C(CCCCCCC(=O)Nc1ccccc1)NO [Vorinostat] (partner 1 µM)
Summary of the method: (§1)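 Values are medians from duplicate plates. Each reflects relative viability, defined as the nuclei count of treated wells over that of vehicle wells. Lung cancer cell lines in 1536-well plates were pin-tool dosed one day after seeding with one drug alone or with a fixed anchor-drug dose plus five library-drug doses (not always all listed) in √10 steps, then fixed, stained and imaged at 4× after 5 days.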

Elesclomol + AZD7762 = compound: CN(NC(=O)CC(=O)NN(C)C(=S)c1ccccc1)C(=S)c1ccccc1 [Elesclomol] + NC(=O)Nc1cc(-c2cccc(F)c2)sc1C(=O)N[C@H]1CCCNC1 [AZD7762] (partner 0.2 µM)
Summary of the method: as §1

Elesclomol + Lapatinib = compound: CN(NC(=O)CC(=O)NN(C)C(=S)c1ccccc1)C(=S)c1ccccc1 [Elesclomol] + CS(=O)(=O)CCNCc1ccc(-c2ccc3ncnc(Nc4ccc(OCc5cccc(F)c5)c(Cl)c4)c3c2)o1 [Lapatinib] (partner 2 µM)
Summary of the method: as §1

Elesclomol + Trametinib = compound: CN(NC(=O)CC(=O)NN(C)C(=S)c1ccccc1)C(=S)c1ccccc1 [Elesclomol] + CC(=O)Nc1cccc(-n2c(=O)n(C3CC3)c(=O)c3c(Nc4ccc(I)cc4F)n(C)c(=O)c(C)c32)c1 [Trametinib] (partner 0.02 µM)
Summary of the method: as §1

Elesclomol = compound: CN(NC(=O)CC(=O)NN(C)C(=S)c1ccccc1)C(=S)c1ccccc1 [Elesclomol]
Summary of the method: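 Lung cancer cell lines in 1536-well plates were kept overnight at 37 °C, then pinned with five library-drug doses (not always all listed) spaced by √10 on vehicle-anchored plates. After 5 days without medium change, cells were fixed, permeabilised and Hoechst-stained in one step, imaged at 4×, and nuclei were counted with MetaXpress. Viability is treated-well nuclei divided by vehicle-well nuclei, taken as the median over plates. Plates passed only with control CV below 25% and at least one doubling.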

Row | Cell Line | relative viability (Elesclomol + Vorinostat; first compound 0.003162 µM) | relative viability (Elesclomol + Vorinostat; first compound 0.01 µM) | relative viability (Elesclomol + Vorinostat; first compound 0.03162 µM) | relative viability (Elesclomol + Vorinostat; first compound 0.1 µM) | relative viability (Elesclomol + AZD7762; first compound 0.003162 µM) | relative viability (Elesclomol + AZD7762; first compound 0.01 µM) | relative viability (Elesclomol + AZD7762; first compound 0.03162 µM) | relative viability (Elesclomol + AZD7762; first compound 0.1 µM) | relative viability (Elesclomol + Lapatinib; first compound 0.003162 µM) | relative viability (Elesclomol + Lapatinib; first compound 0.03162 µM) | relative viability (Elesclomol + Lapatinib; first compound 0.1 µM) | relative viability (Elesclomol + Trametinib; first compound 0.003162 µM) | relative viability (Elesclomol + Trametinib; first compound 0.01 µM) | relative viability (Elesclomol + Trametinib; first compound 0.03162 µM) | relative viability (Elesclomol + Trametinib; first compound 0.1 µM) | relative viability (Elesclomol; 0.003162 µM) | relative viability (Elesclomol; 0.01 µM) | relative viability (Elesclomol; 0.03162 µM) | relative viability (Elesclomol; 0.1 µM) | relative viability (Elesclomol + Lapatinib; first compound 0.01 µM)
1 | NCI-H23 | 0.559 | 0.385 | 0.318 | 0.0919 | 0.29 | 0.164 | 0.176 | 0.108 | 1.12 | 0.799 | 0.139 | 0.426 | 0.404 | 0.208 | 0.117 | 1 | 0.566 | 0.786 | 0.128 | –
2 | NCI-H1395 | 0.814 | 0.46 | 0.245 | 0.215 | 0.438 | 0.431 | 0.226 | 0.202 | 1.01 | 0.289 | 0.304 | 1.01 | 0.626 | 0.294 | 0.215 | 0.972 | 0.475 | 0.279 | 0.265 | 0.368
3 | NCI-H1666 | 1.05 | 0.91 | 0.836 | 0.714 | 0.784 | 0.807 | 0.492 | 0.416 | 0.556 | 0.229 | 0.153 | 0.801 | 0.675 | 0.689 | 0.662 | 1.01 | 0.933 | 0.755 | 0.542 | 0.326
4 | NCI-H2405 | 0.933 | 0.415 | 0.314 | 0.276 | 0.692 | 0.576 | 0.269 | 0.281 | 1.16 | 0.291 | 0.289 | 0.687 | 0.468 | 0.295 | 0.272 | 1.08 | 0.581 | 0.362 | 0.384 | 0.292
5 | HCC-78 | 0.46 | 0.38 | 0.36 | 0.553 | 0.672 | 0.696 | 0.513 | 0.642 | 0.704 | 0.932 | 0.798 | 0.7 | 0.549 | 0.674 | 0.722 | 0.87 | 1 | 0.861 | 0.926 | 0.65
6 | NCI-H2170 | 0.808 | 0.683 | 0.777 | 0.408 | 0.896 | 0.846 | 0.852 | 0.493 | 0.273 | 0.259 | 0.257 | 0.949 | 0.95 | 0.898 | 0.607 | 0.967 | 0.938 | 0.986 | 0.657 | 0.285
7 | NCI-H1793 | 0.808 | 0.623 | 0.613 | 0.117 | 0.442 | 0.448 | 0.464 | 0.104 | 0.657 | 0.651 | 0.112 | 0.339 | 0.414 | 0.318 | 0.111 | 0.893 | 0.635 | 0.892 | 0.251 | 0.613
8 | HCC-366 | 0.371 | 0.228 | 0.173 | 0.0207 | 0.312 | 0.255 | 0.393 | 0.0195 | 1.07 | 0.563 | 0.015 | 0.383 | 0.311 | 0.114 | 0.0129 | 1.04 | 1.08 | 0.924 | 0.202 | 1.06
9 | NCI-H1651 | 0.557 | 0.527 | 0.519 | 0.434 | 0.462 | 0.469 | 0.345 | 0.334 | 0.715 | 0.112 | 0.0857 | 0.854 | 0.842 | 0.858 | 0.538 | 0.903 | 0.954 | 0.612 | 0.369 | 0.415
10 | LC-2-ad | 0.642 | 0.608 | 0.24 | 0.169 | 0.874 | 0.819 | 0.231 | 0.136 | 0.876 | 0.111 | 0.0969 | 0.888 | 0.811 | 0.272 | 0.197 | 0.963 | 0.568 | 0.241 | 0.19 | 0.334
11 | HCC-827 | 0.759 | 0.777 | 0.742 | 0.767 | 0.25 | 0.253 | 0.163 | 0.191 | 0.178 | 0.194 | 0.188 | 0.571 | 0.442 | 0.555 | 0.504 | 1.05 | 1.02 | 1.02 | 1 | 0.206
12 | LOU-NH91 | 1.02 | 0.826 | 0.782 | 0.66 | 0.769 | 0.726 | 0.563 | 0.471 | 0.733 | 0.574 | 0.478 | 0.814 | 0.733 | 0.769 | 0.643 | 1.06 | 0.856 | 0.798 | 0.764 | 0.669
13 | LU99A | 0.438 | 0.459 | 0.429 | 0.162 | 0.357 | 0.329 | 0.418 | 0.185 | 1.02 | 0.921 | 0.135 | 0.618 | 0.371 | 0.58 | 0.339 | 0.919 | 0.811 | 0.986 | 0.544 | –
14 | HOP-62 | 0.659 | 0.469 | 0.477 | 0.136 | 0.545 | 0.576 | 0.389 | 0.104 | 1.17 | 0.811 | 0.251 | 0.397 | 0.385 | 0.386 | 0.237 | 1.01 | 0.83 | 0.89 | 0.299 | 0.872
15 | NCI-H1734 | 0.859 | 0.592 | 0.207 | 0.101 | 0.518 | 0.45 | 0.145 | 0.0601 | 1.11 | 0.294 | 0.125 | 0.674 | 0.511 | 0.151 | 0.0873 | 0.976 | 0.794 | 0.32 | 0.127 | 0.893
